Data reported in patent US8106054B2, “Crystalline pyridazine compound” (priority 2007, dated 2012).
In brackets after ≈: the same amount, converted by molar mass.

How the values were obtained:
[1] = Phase-1 first-in-human trial, pharmacokinetics; type: in vivo
From the text: A randomized, double-blind, placebo controlled trial was designed to evaluate the safety/tolerability, pharmacokinetics and antiviral activity of single (in Part A) and multiple (in Part B) doses of Compound (1) (oleic acid solution, above) in subjects chronically infected with HCV genotype 1 (GT-1) without decompensated cirrhosis.
In completed Part A, five successive cohorts of 6 subjects were randomized (5:1) to receive single ascending doses of Compound 1 (40, 120, 240, 240-with food, or 480 mg) or placebo. In ongoing Part B, four successive cohorts of 12 subjects are randomized (10:2) to receive multiple ascending doses of Compound 1 (40 mg BID, 120 mg BID, 240 mg QD, 240 mg BID) or placebo, over 8 days.

physchem = type: physicochemical; details: pH 2, aqueous buffer
[2] = set-up: species or system human; details: in vivo
[3] = test system: HCV genotype 1 (Con-1/lucneo) replicon; type: cell-based; details: 3 days, absence of HSA
Protocol: HCV genotype 1 (Con-1/lucneo) and 1a (H77/neo) replicon cells were incubated with serial dilutions of compound (1) 2′C-methyl adenosine (2′CMeA) or IFNα for 3 days in the absence or presence of 40 mg/mL human serum albumin (HSA).

Row | Compound | mean concentration 24 hours after dosing relative to protein binding adjusted in vitro HCV GT-1 replicon EC50 ([1]; 240 mg fasted single dose) [fold] | increase in systemic exposure with a high fat meal ([1]; single dose 240 mg with food vs fasted) | solubility (physchem) [µg/mL] | tolerability of single doses [2] | EC50 HCV 1-lucneo [3] [IU/mL]
1 | Fc1ccccc1-c1nc2ccn(Cc3ccc(-c4ccc(C(F)(F)F)cc4C(F)(F)F)nn3)cc-2n1 [Compound 1, 5-((6-(2,4-Bis(trifluoromethyl)phenyl]pyridazin-3-yl)methyl)-2-(2-fluorophenyl)-5H-imidazo[4,5-c]pyridine] | ~7 | approximately 2 fold | 458 (≈ 885 µM) | well tolerated, with no serious or treatment-limiting adverse events (AEs) reported | –
2 | IFN-α | – | – | – | – | 2
